Series [1] has as its system Shay's rat. As to the kind of experiment: Anti-ulcerative activity, pylorus ligation (Shay's rat). It counts as in vivo. Particulars: perorally, 16 hours after ligation; for inhibition in vivo at 100 mg/kg / inhibition in vivo at 500 mg/kg: Rattus norvegicus, po, 16 h, read-out: % inhibition (ulcer index). The procedure: In order to ascertain the anti-ulcerative activity […], Shay's rat (Gastro enterology 26, P. 906) is selected. Rats are fasted for 48 hours and pylorus ligation is carried out under light anesthesia. Drug is given perorally. 16 hours after ligation the animals are sacrificed and the stomach is removed. The induced erosion is measured in area and scored as ulcer index (U.I.). The data are expressed as % inhibition to the control value from the equation described below.

A short description of series [2]: Acute toxicity (Litchfield & Wilcoxon method). Particulars: rat, in vivo. As to the method: The acute toxicity of Compound 3 is determined by Litchfield & Wilcoxon method using SD rats.
For series [3], the target named is T1, pepsin (Sus scrofa, UniProt P00791).
T1 construct: purchased
Nature of the series: Anti-peptic activity in vitro (bovine serum albumin as substrate). Particulars: for IC50: obtained graphically, read-out: ID50 (50% inhibiting dose) (converted); for inhibition at 125 µg/mL: sample concentration 0.125 mg/ml; for inhibition at 250 µg/mL: sample concentration 0.250 mg/ml; for inhibition at 500 µg/mL: sample concentration 0.500 mg/ml; for inhibition at 1000 µg/mL: sample concentration 1.000 mg/ml. It counts as biochemical. The procedure: Anti-peptic activity of the compounds is tested in vitro according to V. K. Thiemer (Arznei-Forsch 22 (6), PP. 1086, 1972), using bovine serum albumin as a substrate and commercially available pepsin.
Also ID50 (50% inhibiting dose) is obtained graphically.

Series [4] in a line: Stability on storage (% residue of the original compound). Particulars: for remaining at 96 h: 40° C.; for remaining at 192 h: 60° C.; for remaining at 240 h: 70° C.; for remaining at 288 h: 80° C. It counts as physicochemical. From the text: The data are expressed in % residue of the original compounds after the storage in each condition.

The source of these data is patent publication US4595694A, “Azulene derivatives, processes of their synthesis and their uses as anti-ulcerative and anti-inflammatory agents” (Kotobuki Seiyaku Co. Ltd., priority 1983, dated 1986).

Structures can show the parent of a compound that is named as a salt.

T1 sequence (P00791 60-385): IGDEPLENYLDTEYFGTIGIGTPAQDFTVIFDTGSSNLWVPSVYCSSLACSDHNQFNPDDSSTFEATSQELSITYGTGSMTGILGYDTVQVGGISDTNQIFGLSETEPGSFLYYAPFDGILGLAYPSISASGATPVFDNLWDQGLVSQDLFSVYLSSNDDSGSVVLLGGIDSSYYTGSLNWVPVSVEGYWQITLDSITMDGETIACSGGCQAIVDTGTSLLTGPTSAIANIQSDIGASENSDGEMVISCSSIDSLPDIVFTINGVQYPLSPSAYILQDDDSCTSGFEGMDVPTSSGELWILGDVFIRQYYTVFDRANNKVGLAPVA

`CCCCCc1cc(S(=O)(=O)O)c2ccccc(OC)c1-2` [compound 28, Sodium 4-methoxy-3-pentyl-azulene sulfonate]: in series [1] (100 mg/kg), the inhibition in vivo at 100 mg/kg came out at 42%.
Usually LD50 stands for the dose expected to kill half of the subjects tested. A word on the inhibition: it is the relative decrease from the control value, in per cent. For orientation: amount remaining means what is left of the initial amount, in per cent. A high value points to greater stability. As to `CCc1cc(S(=O)(=O)O)c2cc(C(C)C)cccc1-2` [compound 3, Sodium 3-ethyl-7-isopropyl-azulene sulfonate], the LD50 in series [2] (ip, I.P., female, 95% confidence limits) came to 180 mg/kg. The LD50 in series [2] (ip, I.P., male, 95% confidence limits) is 165 mg/kg. Besides, the LD50 in series [2] (iv, I.V., female, 95% confidence limits) amounted to 153 mg/kg. The same molecule gave an LD50 in series [2] (iv, I.V., male) of 130 mg/kg. The same molecule came in with an LD50 in series [2] (po, P.O., female, 95% confidence limits) of 1200 mg/kg. Further, the LD50 in series [2] (po, P.O., male, 95% confidence limits) turned out to be 1000 mg/kg. In addition, in series [3], the IC50 was 1070 µM, the inhibition at 125 µg/mL came to 17.3%, the inhibition at 250 µg/mL is 47.6% and the inhibition at 500 µg/mL was 63.6%. In series [3], the inhibition at 1000 µg/mL stood at 97.1%. For the same molecule, the inhibition in vivo at 500 mg/kg in series [1] was 100%. For the same molecule, in series [4], the amount remaining at 96 h was determined as 100%, the share remaining at 192 h was determined as 100%, the amount remaining at 240 h amounted to 100% and the share remaining at 288 h worked out at 100%. In series [4] (compared with sodium guaiazulene sulfonate), the “stability, in words” value is given as “greatly improved”.
Regarding `CCCCc1cc(S(=O)(=O)O)c2ccccc(OC)c1-2` [compound 27, Sodium 4-methoxy-3-butyl-azulene sulfonate], the inhibition in vivo at 100 mg/kg in series [1] (100 mg/kg) was 66.3%.
On the same count and under the same terms, then `CC(C)c1cccc2c(Cc3ccccc3)cc(S(=O)(=O)O)c-2c1` [compound 23, Sodium 7-isopropyl-3-benzyl-azulene sulfonate], with 9.8%.
In the case of `CCCCCCc1cc(S(=O)(=O)O)c2ccccc(OC)c1-2` [compound 29, Sodium 4-methoxy-3-hexyl-azulene sulfonate], the inhibition in vivo at 100 mg/kg in series [1] (100 mg/kg) amounted to 38%.
Consider `Cc1cc(S(=O)(=O)O)c2cc(C(C)C)cccc1-2` [compound 37, 7-isopropyl-3-methyl-azulene sulfonic acid aluminum salt], for which, in series [1] (100 mg/kg), the inhibition in vivo at 100 mg/kg stood at 58.4%.
Same read-out and setting: to `CCCCc1cc(S(=O)(=O)O)c2cc(C(C)C)ccc(OC)c1-2` [compound 33, Sodium 7-isopropyl-4-methoxy-3-butyl-azulene sulfonate] belongs 64.8%.
On the same count and under the same terms, then `CCCc1cc(S(=O)(=O)O)c2ccccc(OC)c1-2` [compound 26, Sodium 4-methoxy-3-propyl-azulene sulfonate], with 75.6%.
The same measure, in the same setting: then `CCCCCc1cc(S(=O)(=O)O)c2cc(C(C)C)cccc1-2` [compound 19, Sodium 7-isopropyl-3-n-pentyl-azulene sulfonate], with -56.3%; and `COc1ccccc2c(S(=O)(=O)O)cc(C)c1-2` [compound 24, Sodium 4-methoxy-3-methyl-azulene sulfonate], with 63.4%; and `CCCCc1cc(S(=O)(=O)O)c2cccccc1-2` [compound 14, Sodium 3-n-butyl-azulene sulfonate], with 32.7%.
Regarding `CCCCCc1cc(S(=O)(=O)O)c2cc(C(C)C)ccc(OC)c1-2` [compound 34, Sodium 7-isopropyl-4-methoxy-3-pentyl-azulene sulfonate], in series [1] (100 mg/kg), the inhibition in vivo at 100 mg/kg is -14.6%.
Still for that read-out and setting: then `CC(C)=CCC[C@@H](C)c1cc(S(=O)(=O)O)c2cc(C(C)C)cccc1-2` [compound 21, Sodium 7-isopropyl-3-(1'-R-1',5'-dimethyl-4'-hexene)-azulene sulfonate], with 14.5%.
The same measure, in the same setting: to `CC(C)=CCC[C@H](C)c1cc(S(=O)(=O)O)c2cc(C(C)C)cccc1-2` [compound 22, Sodium 7-isopropyl-3-(1'-S-1',5'-dimethyl-4'-hexene)-azulene sulfonate] belongs -19.5%.
For the molecule `Cc1cc(S(=O)(=O)O)c2c(C)ccc(C(C)C)cc1-2` [GAS, sodium guaiazulene-3-sulfonate, reference compound], in series [3], the IC50 is 1290 µM, the inhibition at 125 µg/mL was found to be 14.6%, the inhibition at 250 µg/mL was 50.4% and the inhibition at 500 µg/mL stood at 58.6%. In series [3], the inhibition at 1000 µg/mL came out at 75.1%. In series [4], this molecule gave a fraction remaining at 96 h of 100%, an amount remaining at 192 h of 51.3%, a share remaining at 240 h of 9.3% and an amount remaining at 288 h of 1.5%.
As to `CCc1cc(S(=O)(=O)O)c2ccccc(OC)c1-2` [compound 25, Sodium 4-methoxy-3-ethyl-azulene sulfonate], the inhibition in vivo at 100 mg/kg in series [1] (100 mg/kg) came out at 75.6%.
Still for that read-out and setting: then `CCCc1cc(S(=O)(=O)O)c2cccccc1-2` [compound 12, Sodium 3-propyl-azulene sulfonate], with 78.5%.
In the case of `Cc1cc(S(=O)(=O)O)c2cccccc1-2` [compound 35, 3-methyl-azulene sulfonic acid aluminum salt], in series [1] (100 mg/kg), the inhibition in vivo at 100 mg/kg was determined as 16.5%.
Regarding `CC(C)=CCCC(C)c1cc(S(=O)(=O)O)c2cccccc1-2` (centres unmarked) [compound 5, Sodium 3-(1'-R, S-1',5'-dimethyl-4'-hexene) azulene sulfonate], in series [3], the IC50 is 3790 µM, the inhibition at 125 µg/mL came to 0.26%, the inhibition at 250 µg/mL worked out at 3.57% and the inhibition at 500 µg/mL was 24.5%. In addition, the inhibition at 1000 µg/mL in series [3] amounted to 50.4%. Moreover, the inhibition in vivo at 500 mg/kg in series [1] is 95.5%.
Regarding `Cc1cc(S(=O)(=O)O)c2cc(C(C)C)cccc1-2` [compound 13, Sodium 3-methyl-7-isopropyl-azulene sulfonate], the “% inhibition (ulcer index)” value in series [1] (100 mg/kg) is reported as 69.7%.
`CCCc1cc(S(=O)(=O)O)c2cc(C(C)C)ccc(OC)c1-2` [compound 32, Sodium 7-isopropyl-4-methoxy-3-propyl-azulene sulfonate]: the inhibition in vivo at 100 mg/kg in series [1] (100 mg/kg) stood at 44.1%.
In the case of `CCc1cc(S(=O)(=O)O)c2cc(C(C)C)ccc(OC)c1-2` [compound 31, Sodium 7-isopropyl-4-methoxy-3-ethyl-azulene sulfonate], in series [1] (100 mg/kg), the inhibition in vivo at 100 mg/kg came to 67.6%.
For the molecule `CCc1cc(S(=O)(=O)O)c2ccc(C(C)C)ccc1-2` [compound 4, Sodium 3-ethyl-6-isopropyl-azulene sulfonate], in series [3], the IC50 was 1830 µM, the inhibition at 125 µg/mL is 17.3%, the inhibition at 250 µg/mL worked out at 28.9% and the inhibition at 500 µg/mL is 65.7%. For the same molecule, the inhibition at 1000 µg/mL in series [3] worked out at 55.8%. Further, in series [1], the inhibition in vivo at 500 mg/kg was 100%.
Consider `CC(C)=CCC[C@H](C)c1cc(S(=O)(=O)O)c2cccccc1-2` [compound 8, Sodium 3-(1'-S-1',5'-dimethyl-4'-hexene)-azulene sulfonate], for which the inhibition in vivo at 500 mg/kg in series [1] came to 69.9%.
Turning to `CCc1cc(S(=O)(=O)O)c2cc(C(C)C)cccc1-2` [compound 38, 7-isopropyl-3-ethyl-azulene sulfonic acid aluminum salt], the inhibition in vivo at 100 mg/kg in series [1] (100 mg/kg) amounted to 40.3%.
Still for that read-out and setting: then `CC(C)c1cccc2c(S(=O)(=O)O)ccc-2c1` [compound 16, Sodium 5-isopropyl-azulene sulfonate], with 62%; and `CCCCc1cc(S(=O)(=O)O)c2cc(C(C)C)cccc1-2` [compound 18, Sodium 7-isopropyl-3-n-butyl-azulene sulfonate], with 17.2%.
For `CCc1cc(S(=O)(=O)O)c2cccccc1-2` [compound 36, 3-ethyl-azulene sulfonic acid aluminum salt], the inhibition in vivo at 100 mg/kg in series [1] (100 mg/kg) was determined as 28.6%.
Still for that read-out and setting: to `CCCc1cc(S(=O)(=O)O)c2cc(C(C)C)cccc1-2` [compound 17, Sodium 7-isopropyl-3-n-propyl-azulene sulfonate] belongs 31.2%.
For the molecule `CCc1cc(S(=O)(=O)O)c2cccccc1-2` [compound 2, Sodium 3-ethyl-azulene sulfonate], the inhibition in vivo at 500 mg/kg in series [1] is 100%.
In the case of `CCCCCc1cc(S(=O)(=O)O)c2cccccc1-2` [compound 15, Sodium 3-n-pentyl-azulene sulfonate], in series [1] (100 mg/kg), the inhibition in vivo at 100 mg/kg came to 64.3%.
Regarding `Cc1cc(S(=O)(=O)O)c2cccccc1-2` [compound 1, Sodium 3-methyl-azulene sulfonate], the inhibition in vivo at 500 mg/kg in series [1] was 52.4%.
With `CC(C)=CCCC(C)c1cc(S(=O)(=O)O)c2cc(C(C)C)cccc1-2` (centres unmarked) [compound 20, Sodium 7-isopropyl-3-(1'-R, S-1',5'-dimethyl-4'-hexene)-azulene sulfonate], the inhibition in vivo at 100 mg/kg in series [1] (100 mg/kg) amounted to 43.8%.
Still for that read-out and setting: then `COc1ccc(C(C)C)cc2c(S(=O)(=O)O)cc(C)c1-2` [compound 30, Sodium 7-isopropyl-4-methoxy-3-methyl-azulene sulfonate], with 58.7%.
